# Patent publication US8309568B2, “Transdermally deliverable opioid prodrugs, abuse-resistant compositions and methods of using opioid prodrugs” (Alltranz Inc., priority 2006, dated 2012)
# Like-named read-outs stand apart in the source and are kept apart here.
# Tests used:
# [1] = not given; remark: listed apart in the source
# [2] = Table 8, gel formulation, analyte buprenorphine from prodrug
# [3] = Table 8, gel formulation, analyte intact prodrug
# [4] = Table 8, gel formulation, analyte total buprenorphine (buprenorphine and/or prodrug)
# [5] = Table 9, propylene glycol, analyte buprenorphine from prodrug
# [6] = Table 9, propylene glycol, analyte intact prodrug
# [7] = Table 9, propylene glycol, analyte total buprenorphine (buprenorphine and/or prodrug)
# [8] = Table 8, gel formulation, total buprenorphine flux relative to buprenorphine
# [9] = Table 6, propylene glycol, 25% aq. ethanol receiver, analyte buprenorphine from prodrug
# [10] = Table 6, propylene glycol, 25% aq. ethanol receiver, analyte intact prodrug
# [11] = Table 6, propylene glycol, 25% aq. ethanol receiver, analyte total buprenorphine (buprenorphine and/or prodrug)
# [12] = Table 11, propylene glycol, analyte intact prodrug
# [13] = Table 11, propylene glycol, analyte total buprenorphine (buprenorphine and/or prodrug)
# [14] = Table 11, propylene glycol, analyte buprenorphine from prodrug
# [15] = Table 11, propylene glycol, total buprenorphine flux relative to buprenorphine
# [16] = Table 10, gel formulation, analyte intact prodrug
# [17] = Table 10, gel formulation, analyte total buprenorphine (buprenorphine and/or prodrug)
# [18] = Table 12, propylene glycol/ethanol [96:4], analyte buprenorphine from prodrug
# [19] = Table 12, propylene glycol/ethanol [96:4], analyte intact prodrug
# [20] = Table 12, propylene glycol/ethanol [96:4], analyte total buprenorphine (buprenorphine and/or prodrug)
# [21] = Table 13, gel formulation, analyte buprenorphine from prodrug
# [22] = Table 13, gel formulation, analyte total buprenorphine (buprenorphine and/or prodrug)
smiles,measurement,setting,value
"COCCOCCOCCOC(=O)Oc1ccc2c3c1OC1C4(OC)CC[C@]5(CC4C(C)(O)C(C)(C)C)[C@@H](C2)N(CC2CC2)CC[C@]315 (stereo partly drawn) [ALL00106, Buprenorphine 3,6,9-trioxadecyl carbonate]",24 h skin conc,"Table 3, donor propylene glycol, Hanks' buffer receiver, analyte buprenorphine (Bup)",0.2 ± 0.1 (Bup) μmol/g
same,24 h skin conc,"Table 3, donor propylene glycol, Hanks' buffer receiver, analyte intact prodrug (PD)",2.1 ± 1.5 (PD) μmol/g
same,24 h skin conc,[2],0.3 ± 0.1 µmol/g
same,24 h skin conc,[3],11.9 ± 3.6 µmol/g
same,24 h skin conc,[4],12.2 ± 3.6 µmol/g
same,24 h skin conc,[5],1.6 ± 0.4 µmol/g
same,24 h skin conc,[6],10.4 ± 4.0 µmol/g
same,24 h skin conc,[7],11.9 ± 4.4 µmol/g
same,form in which the prodrug permeated through the skin,[1]; Hanks' buffer receiver fluid,permeated through the human skin as buprenorphine
same,24 h cumulative amt,"[1]; Table 3, donor propylene glycol, Hanks' buffer receiver, buprenorphine permeated",11.4 ± 0.8 nmol
same,Flux,"[1]; Table 3, donor propylene glycol, Hanks' buffer receiver, total buprenorphine flux",0.54±0.07 nmol/cm^2/h
same,Flux enhancement,"[1]; Table 3, donor propylene glycol, flux relative to buprenorphine",1.20
same,24 h cumulative amt,[1]; [2],1.7 ± 0.3 nmol
same,Flux,[1]; [2],0.2 ± 0.1 nmol/cm^2/h
same,Lag time,[1]; [2],4.7 ± 1.5 h
same,24 h cumulative amt,[1]; [3],3.8 ± 0.3 nmol
same,Flux,[1]; [3],0.3 ± 0.0 nmol/cm^2/h
same,Lag time,[1]; [3],8.2 ± 0.8 h
same,24 h cumulative amt,[1]; [4],5.5 ± 0.5 nmol
same,Flux,[1]; [4],0.4 ± 0.1 nmol/cm^2/h
same,Lag time,[1]; [4],6.5 ± 1.1 h
same,Flux enhancement,[1]; [8],0.4
same,24 h cumulative amt,[1]; [5],30.1 ± 13.2 nmol
same,Flux,[1]; [5],2.3 ± 0.8 nmol/cm^2/h
same,Lag time,[1]; [5],10.2 ± 1.4 h
same,24 h cumulative amt,[1]; [6],18.8 ± 4.6 nmol
same,Flux,[1]; [6],1.5 ± 0.3 nmol/cm^2/h
same,Lag time,[1]; [6],11.1 ± 1.2 h
same,24 h cumulative amt,[1]; [7],48.9 ± 17.6 nmol
same,Flux,[1]; [7],3.8 ± 1.1 nmol/cm^2/h
same,Lag time,[1]; [7],10.6 ± 1.3 h
same,Flux enhancement,"[1]; Table 9, propylene glycol, total buprenorphine flux relative to buprenorphine",3.2
"COCCOCCOCC(=O)Oc1ccc2c3c1O[C@H]1[C@@]4(OC)CC[C@@]5(C[C@@H]4[C@@](C)(O)C(C)(C)C)[C@@H](C2)N(CC2CC2)CC[C@]315 [ALL00108, Buprenorphine 2-[2-(2-methoxyethoxy)ethoxy]acetyl ester]",24 h skin conc,[9],0.4 ± 0.1 µmol/g
same,24 h skin conc,[10],1.0 ± 0.3 µmol/g
same,24 h skin conc,[11],1.4 ± 0.4 µmol/g
same,24 h skin conc,[2],0.2 ± 0.2 µmol/g
same,24 h skin conc,[3],1.9 ± 1.6 µmol/g
same,24 h skin conc,[4],2.2 ± 1.8 µmol/g
same,24 h skin conc,[12],2.4 ± 0.7 µmol/g
same,24 h skin conc,[13],2.4 ± 0.7 µmol/g
same,24 h cumulative amt,[1]; [9],9.7 ± 0.4 nmol
same,Flux,[1]; [9],0.90 ± 0.07 nmol/cm^2/h
same,Lag time,[1]; [9],12.5 ± 1.3 h
same,24 h cumulative amt,[1]; [10],7.6 ± 2.0 nmol
same,24 h cumulative amt,[1]; [11],17.3 ± 1.6 nmol
same,Flux,[1]; [11],1.01±0.07 nmol/cm^2/h
same,Lag time,[1]; [11],6.0 ± 0.5 h
same,Flux enhancement,"[1]; Table 6, propylene glycol, 25% aq. ethanol receiver, total buprenorphine flux relative to buprenorphine",2.35
same,24 h cumulative amt,[1]; [2],21.0 ± 6.7 nmol
same,Flux,[1]; [2],1.2 ± 0.6 nmol/cm^2/h
same,Lag time,[1]; [2],7.8 ± 0.8 h
same,24 h cumulative amt,[1]; [4],21.0 ± 6.7 nmol
same,Flux,[1]; [4],1.2±0.6 nmol/cm^2/h
same,Lag time,[1]; [4],7.8 ± 0.8 h
same,Flux enhancement,[1]; [8],1.3
same,24 h cumulative amt,[1]; [14],5.8 ± 0.7 nmol
same,Flux,[1]; [14],0.5 ± 0.0 nmol/cm^2/h
same,Lag time,[1]; [14],10.9 ± 2.4 h
same,24 h cumulative amt,[1]; [13],5.8 ± 0.7 nmol
same,Flux,[1]; [13],0.5±0.0 nmol/cm^2/h
same,Lag time,[1]; [13],10.9 ± 2.4 h
same,Flux enhancement,[1]; [15],1.7
same,form in which the prodrug permeated through the skin,[1]; aqueous ethanol receiver fluid,permeated through the skin as buprenorphine and intact prodrug
same,cumulative amount (nmol) higher than the buprenorphine base,"[1]; aqueous ethanol receiver, propylene glycol, relative to buprenorphine base",4 ×
"COCCOCCOCCOCCOC(=O)Oc1ccc2c3c1OC1C4(OC)CC[C@]5(CC4C(C)(O)C(C)(C)C)[C@@H](C2)N(CC2CC2)CC[C@]315 (stereo partly drawn) [ALL00115, Buprenorphine 3,6,9,12-tetraoxatridecyl carbonate]",24 h skin conc,"Table 10, gel formulation, analyte buprenorphine from prodrug",0.1 ± 0.0 µmol/g
same,24 h skin conc,[16],3.4 ± 0.6 µmol/g
same,24 h skin conc,[17],1.4 ± 0.4 µmol/g
same,24 h skin conc,[12],0.8 ± 0.2 µmol/g
same,24 h skin conc,[13],0.8 ± 0.2 µmol/g
same,24 h cumulative amt,[1]; [16],4.5 ± 1.3 nmol
same,Flux,[1]; [16],0.2 ± 0.1 nmol/cm^2/h
same,Lag time,[1]; [16],7.6 ± 0.5 h
same,24 h cumulative amt,[1]; [17],4.5 ± 1.3 nmol
same,Flux,[1]; [17],0.2±0.1 nmol/cm^2/h
same,Lag time,[1]; [17],7.6 ± 0.5 h
same,Flux enhancement,"[1]; Table 10, gel formulation, total buprenorphine flux relative to buprenorphine",1.2
same,24 h cumulative amt,[1]; [12],6.0 ± 1.3 nmol
same,24 h cumulative amt,[1]; [13],6.0 ± 1.3 nmol
same,Flux,[1]; [13],0.7±0.2 nmol/cm^2/h
same,Lag time,[1]; [13],9.4 ± 8.5 h
same,Flux enhancement,[1]; [15],2.3
same,form detected in the receiver fluid,[1]; both the gel formulation and propylene glycol,mostly detected as intact prodrug
"COCCOCCOCCOCC(=O)Oc1ccc2c3c1OC1C4(OC)CC[C@]5(CC4C(C)(O)C(C)(C)C)[C@@H](C2)N(CC2CC2)CC[C@]315 (stereo partly drawn) [ALL00116, Buprenorphine 3,6,9,12-tetraoxatridecanoyl ester]",24 h skin conc,[18],2.4 ± 0.9 µmol/g
same,24 h skin conc,[19],20.4 ± 5.8 µmol/g
same,24 h skin conc,[20],22.7 ± 6.8 µmol/g
same,24 h skin conc,[21],0.2 ± 0.0 µmol/g
same,24 h skin conc,"Table 13, gel formulation, analyte intact prodrug",3.3 ± 0.8 µmol/g
same,24 h skin conc,[22],3.5 ± 0.9 µmol/g
same,24 h cumulative amt,[1]; [18],8.7 ± 1.2 nmol
same,Flux,[1]; [18],0.8 ± 0.2 nmol/cm^2/h
same,Lag time,[1]; [18],13.2 ± 0.8 h
same,24 h cumulative amt,[1]; [19],21.7 ± 6.7 nmol
same,Flux,[1]; [19],1.9 ± 0.6 nmol/cm^2/h
same,Lag time,[1]; [19],11.8 ± 1.4 h
same,24 h cumulative amt,[1]; [20],30.4 ± 7.0 nmol
same,Flux,[1]; [20],2.7±0.7 nmol/cm^2/h
same,Lag time,[1]; [20],12.3 ± 1.2 h
same,Flux enhancement,"[1]; Table 12, propylene glycol/ethanol [96:4], total buprenorphine flux relative to buprenorphine",9.2
same,24 h cumulative amt,[1]; [21],5.5 ± 0.6 nmol
same,Flux,[1]; [21],0.4 ± 0.1 nmol/cm^2/h
same,Lag time,[1]; [21],7.2 ± 0.6 h
same,24 h cumulative amt,[1]; [22],5.5 ± 0.6 nmol
same,Flux,[1]; [22],0.4±0.1 nmol/cm^2/h
same,Lag time,[1]; [22],7.2 ± 0.6 h
same,Flux enhancement,"[1]; Table 13, gel formulation, total buprenorphine flux relative to buprenorphine",1.2
